Reference: patent US20240124454A1, “TRICYCLIC COMPOUND AND USE THEREOF” (NANJING ZAIMING PHARMACEUTICAL CO., LTD., priority 2020, published 2024)
Read-outs that look alike come from different tables or passages of the source.

Columns and labels:
MAT2A = MAT2A (Homo sapiens (Human), UniProt P31153); experiment: MAT2A biochemical test (inorganic phosphate colorimetric, PiColorLock); conditions: read-out: MAT2A inhibitory Activity IC50
Outline: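 Compounds tested from 10 μM top concentration in 3-fold dilutions, preincubated 120 min at room temperature with MAT2A ([…] final) in Tris/KCl/MgCl2/EDTA/BSA buffer. Reaction started with […] L-methionine and 400 μM ATP, run 90 min at room temperature; phosphate read by PiColorLock after 30 min. IC50 fitted from % inhibition versus no-enzyme and DMSO controls.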

HCT116 MTAP^−/− cells [1] = experiment: Cell proliferation inhibition test (Cell-Titer Glo), HCT116 MTAP−/−; type: cell-based, human; conditions: Homo sapiens, HCT-116, 144 h, 6 days, read-out: HCT116 MTAP−/− Antiproliferative activity IC50
Method: (§1) Test Example 3. Cell Proliferation Inhibition Test of Human Colon Cancer HCT116 WT Cells and HCT116 MTAP-1-Cells
(§2) The brief introduction of the test principle: After the test MAT2A inhibitor was incubated with cancer cells for a period of time, the effect of the test compound on cell proliferation was measured using a cell proliferation count method based on the ATP content.
(§3) Reference: The experiment referred to the method disclosed in patent WO2018045071.
(§4) Material and cell: HCT116 WT cells and HCT116 MTAP^−/− cells were purchased from KYinno; fetal bovine serum, McCoy's 5a culture medium, and penicillin-streptomycin were purchased from Gibco Company (U.S.), 96-well plates were purchased from Corning Company (U.S.), and the Cell-Titer Glo reagent was purchased from Promega Company (U.S.).
(§5) Cell culture: HCT116 WT cells and HCT116 MTAP^−/− cells were cultured with a McCoy's 5a medium containing 10% fetal bovine serum+1% penicillin-streptomycin at 37° C. with 5% CO2.
(§6) Cells at logarithmic growth phase were available for the experiment.
(§7) Cell proliferation activity test: The Cell-Titer Glo reagent was used to test the compound for inhibitory activity on proliferation of both HCT116 WT and HCT116 MTAP^−/− cell strains. The cells were adjusted to a concentration of 400 cells per well, seeded on a 96-well plate, and incubated overnight at 37° C. with 5% CO2.
(§8) In the experimental group, the test compound was diluted sequentially with DMSO and a culture medium, and transferred to a cell plate at a final concentration of 10 μM, 3-fold dilution. The cells were continuously cultured at 37° C. with 5% CO2 for 6 days. The Cell-Titer Glo reagent was added and the cell activity was measured.
(§9) A negative control group and a positive control group were respectively used as Bottom and Top. The negative control group was not added with cells, only added with the culture medium in the same volume, and other operations were consistent with those of the experimental group. The positive control group was not added with the test compound, only added with DMSO in the same volume, and other operations were consistent with those of the experimental group.
(§10) The % Compound inhibition was calculated and fitted to give the IC50 of the compound.
(§11) % Compound inhibition=1-100%×(Signal−Bottom)/(Top−Bottom).
(§12) Signal referred to the signal value of the experimental group, Bottom referred to the average signal value of the negative control group, and Top referred to the average signal value of the positive control group.
(§13) HCT116 MTAP^−/− cells are cells not expressing MTAP protein obtained by site-directed knockout of wild type HCT116 (HCT116 WT) cells by gene knockout. Synthetic lethality will occur due to MAT2A inhibition and the deletion of MTAP, thereby causing tumor cell death. The activity and selectivity of the MAT2A inhibitor can be evaluated by testing the antiproliferative activity of the MAT2A inhibitor on human colon cancer HCT116 MTAP^−/− cells and human colon cancer HCT116 WT.

HCT116 MTAP^−/− cells [2] = experiment: Determination of intracellular SAM level by LC-MS/MS; type: cell-based; conditions: Homo sapiens, HCT-116, 6 h, read-out: SAM production inhibitory activity IC50
Method: Test Example 2. Determination of Intracellular SAM Level
The brief introduction of the test principle: After the test MAT2A inhibitor was incubated with cancer cells for a period of time, the cells were lysed with a stop reagent to quench the activity of the MAT2A enzyme. The catalytic product SAM of MAT2A in the cell lysate was quantitatively determined by LC-MS/MS, and thus the activity of MAT2A in the cell was reflected.
as §3
Material and cell: HCT116 MTAP^−/− cells were purchased from KYinno; fetal bovine serum, McCoy's 5a culture medium, and penicillin-streptomycin were purchased from Gibco Company (U.S.), and 96-well plates were purchased from Corning Company (U.S.).
Cell culture: HCT116 MTAP^−/− cells were cultured with a McCoy's 5a medium containing 10% fetal bovine serum+1% penicillin-streptomycin at 37° C. with 5% CO2. Cells at logarithmic growth phase were available for the experiment.
LC-MS/MS detection: The effect of the compound on the SAM production level in HCT116 MTAP^−/− cell strains was detected by LC-MS/MS. The cells were adjusted to a concentration of 50000 cells per well, seeded on a 96-well plate, and incubated overnight at 37° C. with 5% CO2. In the experimental group, the test compound was dissolved in DMSO, diluted sequentially with DMSO and a culture medium, and transferred to a cell plate at a final concentration of 10 μM, 3-fold dilution. The cells were continuously cultured at 37° C. with 5% CO2 for 6 h. The supernatant was pipetted off. After the cells were washed once with PBS, glacial acetic acid was added to lyse the cells. After the lysate was processed, the SAM concentration was determined by LC-MS/MS analysis.
A negative control group and a positive control group were respectively used as Bottom and Top. The negative control group was added with 10 μM positive compound (compound 072 of Example 51 of patent WO2021139775A1) in the same volume, and other operations were consistent with those of the experimental group. The positive control group was not added with the test compound, only added with DMSO in the same volume, and other operations were consistent with those of the experimental group.
as §10
% Compound inhibition=1−100%×(Signal−Bottom)/(Top−Bottom)
as §12

HCT116 WT cells = experiment: Cell proliferation inhibition test (Cell-Titer Glo), HCT116 WT; type: cell-based, human; conditions: Homo sapiens, HCT-116, 144 h, 6 days, read-out: HCT116 WT Antiproliferative activity IC50
Method: as §1, §2, §3, §4, §5, §6, §7, §8, §9, §10, §11, §12, §13

MAT2A, sequence (P31153 whole entry): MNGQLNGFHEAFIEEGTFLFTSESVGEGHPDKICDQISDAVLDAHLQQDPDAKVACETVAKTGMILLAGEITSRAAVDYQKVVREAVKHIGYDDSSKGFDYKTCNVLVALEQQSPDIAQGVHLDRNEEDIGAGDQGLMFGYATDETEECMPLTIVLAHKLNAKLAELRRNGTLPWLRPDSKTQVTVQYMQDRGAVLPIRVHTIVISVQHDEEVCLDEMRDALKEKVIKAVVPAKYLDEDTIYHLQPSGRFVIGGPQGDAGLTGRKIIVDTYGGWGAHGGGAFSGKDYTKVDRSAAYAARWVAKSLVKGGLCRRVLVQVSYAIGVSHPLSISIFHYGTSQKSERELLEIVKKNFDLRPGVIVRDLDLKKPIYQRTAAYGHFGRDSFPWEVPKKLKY

Row | SMILES | IC50 (MAT2A; class symbols) [nM] | IC50 (MAT2A; numeric values) [nM] | IC50 (HCT116 MTAP^−/− cells [1]) [nM] | IC50 (HCT116 MTAP^−/− cells [2]) [nM] | IC50 (HCT116 WT cells) [nM]
1 | Cc1ncccc1-n1c(=O)c2ncn(C)c2c2ccc(C(F)(F)F)nc21 (single isomer, unassigned) [Compound 20-P1, 1-methyl-5-(2-methylpyridin-3-yl)-7-(trifluoromethyl)-1,5-dihydro-4H-imidazo[4,5-c][1,8]naphthyridin-4-one] | < 100 | 20.5 | 33 | 1.6 | 237
2 | O=c1c2nc[nH]c2c2ccc(C(F)(F)F)nc2n1-c1ccccc1Cl [Compound 1, 5-(2-chlorophenyl)-7-(trifluoromethyl)-1,5-dihydro-4H-imidazo[4,5-c][1,8]naphthyridin-4-one] | < 100 | 31.9 | 115 | 3.8 | 816
3 | Cn1cnc2c(=O)n(-c3ccccc3Cl)c3nc(C(F)(F)F)ccc3c21 [Compound 2, 5-(2-chlorophenyl)-1-methyl-7-(trifluoromethyl)-1,5-dihydro-4H-imidazo[4,5-c][1,8]naphthyridin-4-one] | < 100 | 69.3 | 529 | 7.4 | 4770
4 | O=c1c2nc(C(F)(F)F)[nH]c2c2ccc(C(F)(F)F)nc2n1-c1ccccc1Cl [Compound 9, 5-(2-chlorophenyl)-2,7-bis(trifluoromethyl)-1,5-dihydro-4H-imidazo[4,5-c][1,8]naphthyridin-4-one] | < 100 | 29.6 | 426 |  | 4180
5 | O=c1c2ncoc2c2ccc(C(F)(F)F)nc2n1-c1cccc(F)c1Cl [Compound 35, 5-(2-chloro-3-fluorophenyl)-7-(trifluoromethyl)oxazolo[4,5-c][1,8]naphthyridin-4(5H)-one] | < 100 | 49 | 238 |  | 1210
6 | Cc1cccc(-n2c(=O)c3ncn(C)c3c3ccc(C(F)(F)F)nc32)c1Cl [Compound 36, 5-(2-chloro-3-methylphenyl)-1-methyl-7-(trifluoromethyl)-1,5-dihydro-4H-imidazo[4,5-c][1,8]naphthyridin-4-one] | < 100 | 52.6 | 81.5 | 5.6 | 9970
7 | Cn1cnc2c(=O)n(-c3cccc(Cl)c3Cl)c3nc(C(F)(F)F)ccc3c21 [Compound 37, 5-(2,3-dichlorophenyl)-1-methyl-7-(trifluoromethyl)-1,5-dihydro-4H-imidazo[4,5-c][1,8]naphthyridin-4-one] | < 100 | 48.3 | 169 | 8.8 | 9060
8 | Cc1ccc2c3c(ncn3C)c(=O)n(-c3cccc(F)c3Cl)c2n1 [Compound 38, 5-(2-chloro-3-fluorophenyl)-1,7-dimethyl-1,5-dihydro-4H-imidazo[4,5-c][1,8]naphthyridin-4-one] | < 100 | 82 | 130 |  | 605
9 | [2H]C([2H])([2H])n1cnc2c(=O)n(-c3cccc(F)c3Cl)c3nc(C(F)(F)F)ccc3c21 [Compound 44, 5-(2-chloro-3-fluorophenyl)-1-(methyl-d3)-7-(trifluoromethyl)-1,5-dihydro-4H-imidazo[4,5-c][1,8]naphthyridin-4-one] | < 100 | 49.5 | 71.5 |  | 667
10 | Cn1cnc2c(=O)n(-c3cccnc3)c3nc(C(F)(F)F)ccc3c21 [Compound 64, 1-methyl-5-(pyridin-3-yl)-7-(trifluoromethyl)-1,5-dihydro-4H-imidazo[4,5-c][1,8]naphthyridin-4-one] | < 100 |  | 398 |  | 1050
11 | Cn1cnc2c(=O)n(-c3cccc(F)c3Cl)c3nc(C(F)(F)F)ncc3c21 [Compound 65, 5-(2-chloro-3-fluorophenyl)-1-methyl-7-(trifluoromethyl)-1,5-dihydro-4H-imidazo[4′,5′:4,5]pyrido[2,3-d]pyrimidin-4-one] | < 100 | 78.3 | 188 |  | 859
12 | COc1ncccc1-n1c(=O)c2ncn(C)c2c2ccc(C(F)(F)F)nc21 [Compound 68, 5-(2-methoxypyridin-3-yl)-1-methyl-7-(trifluoromethyl)-1,5-dihydro-4H-imidazo[4,5-c][1,8]naphthyridin-4-one] | < 100 | 53.5 | 394 |  | > 10000
13 | [2H]C([2H])([2H])n1cnc2c(=O)n(-c3cccnc3C)c3nc(C(F)(F)F)ccc3c21 [Compound 72, 1-(methyl-d3)-5-(2-methylpyridin-3-yl)-7-(trifluoromethyl)-1,5-dihydro-4H-imidazo[4,5-c][1,8]naphthyridin-4-one] | < 100 | 52.1 | 191 |  | 970
